Data from US20050033056A1, “Hydroxylated indole derivatives and uses thereof” (priority 2001, published 2005).

Target: CYP2C19 (Homo sapiens, UniProt P33261)
Experiment: CYP inhibition in HLM: S-mephenytoin 4'-hydroxylation
Format: in vitro ADME
Design: tissue Gentest Corp. (Woburn, Mass.); host or cells: pooled human liver microsomes
Conditions: in the presence of Compound 1, concentration-dependent
Description: The incubations were carried out in test tubes (12.0×75 mm). The incubation mixtures (250 μL) contained 0.5 mg of HLM protein, 50 (CYP1A2 and CYP2E1) or 25 (CYP2C9, CYP2C19, CYP2D6 and CYP3A4) pmol of recombinant human CYPs, Compound 1 (10 or 50 μM), probe substrate (R—, S-warfarin, chlorzoxazone, S-mephenyloin, or bufuralol) at different concentrations, and 0.5 mg of NADPH in 50 mM Tris buffer containing 15 mM MgCl2 (pH 7.4). Compound 1 was added to the reaction mixture 5 minutes prior to the addition of the probe substrate. […]
The quantification was based on the calibration curves, and the quality control (QC) samples were applied to ensure the quality of the experiments. […]
4. […] MRM was applied for the quantification. […]
Data were acquired and analyzed by ChemStation (Version 6.03, Hewlett Packard, Waldbronn, Germany) for 6-, 7-, and 10-hydroxywarfarin and 6-hydroxychlorzoxazone, and MacQuan (Version 1.6, PE Biosystem, Foster City, Calif.) for 1′-hydroxybufuralol and 4′-hydroxymephenytoin. Quantification was based on peak area ratios of metabolites over the respective IS against the respective concentration of the metabolites. […] The metabolic rates were determined using Excel (Microsoft Office 97, Microsoft Corporation, Redmond, Wash.) or SigmaPlot (Version 6.00, SPSS Inc. Chicago, Ill.). […]

Sequence of CYP2C19 (P33261 whole entry): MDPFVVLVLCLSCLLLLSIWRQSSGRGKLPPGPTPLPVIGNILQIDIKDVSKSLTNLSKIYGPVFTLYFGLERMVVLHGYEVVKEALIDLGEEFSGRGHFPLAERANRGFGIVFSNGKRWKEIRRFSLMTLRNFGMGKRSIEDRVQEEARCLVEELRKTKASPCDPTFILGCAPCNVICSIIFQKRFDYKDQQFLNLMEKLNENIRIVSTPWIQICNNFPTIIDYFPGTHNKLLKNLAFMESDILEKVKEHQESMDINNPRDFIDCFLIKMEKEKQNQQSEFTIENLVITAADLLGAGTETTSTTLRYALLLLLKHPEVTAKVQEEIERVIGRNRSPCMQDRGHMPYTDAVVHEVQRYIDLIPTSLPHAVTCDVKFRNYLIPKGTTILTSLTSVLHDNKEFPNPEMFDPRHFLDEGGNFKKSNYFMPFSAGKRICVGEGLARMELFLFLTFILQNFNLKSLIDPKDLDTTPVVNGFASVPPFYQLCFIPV

Q: For `CNC(=O)Cc1ccc2ccn(C3CCN(CCc4ccccc4F)CC3)c2c1` [Compound 1, N-methyl-[1-[1-(2-fluorophenethyl)piperidine-4-yl]-1H-indol-6-yl] acetamide], which “effect on CYP2C19-mediated S-mephenyloin 4'-hydroxylation activity (in words)” value is on record?
A: significantly reduced
